This is an account of results in article PMC8710297, “Identification of potent SENP1 inhibitors that inactivate SENP1/JAK2/STAT signaling pathway and overcome platinum drug resistance in ovarian cancer” (Clinical and Translational Medicine, 2021).

One assay deals with STAT3. Nature of the assay: IHC staining of pSTAT3 in xenograft tumor samples. Format: in vivo, mice. The note with it: IGROV1 CR xenograft tumor samples. The method, then: Cell viability was measured by SRB assay. […] Data were represented as mean ± SD (n = 3). (B) Colony formation assay in cells treated as indicated. […] (D) Growth curves of xenograft tumors are shown in (C). Data are represented as means ± SEM, n = 6 mice/group. **p < 0.01. […] (F) IGROV1 CR xenograft tumor growth curve by indicated treatments. Data are represented as means ± SD, n = 6 tumors/group. **p < 0.01. (G) Immunohistochemistry (IHC) staining against pSTAT3 antibodies of tumor samples from four groups of mice (magnification, 200x) (Upper).
Immun ohistochemical (IHC) sta i n in g an d scor ing we r e performed as prev iou sl y described (2).
The qu anti ficatio n of immunohistochemical sta in ing wa s scored blindly at lea st by two independent obser vers. Antibodies used in IHC as say are: SENP1 (ab108981, Abcam, Cambridge, UK), JA K 2 , p‐STAT 3 (ab76315; Abcam), Bc l‐xL (2764S; Cell Signaling Technology) (#3776, Cell Signaling Technologies, Danvers, MA, USA).
11. Cellular thermal shift assay and in vitro thermal shift assay
Cellular thermal shift assay was as previously described (5). Briefly, cells were pretreated with MG132 (10 µM, 1 hour) then incubated wi th DMSO, Mc, UA or UAMMC9 (2 µM) for 4 hours. […]

For the next assay, the system named is IGROV1 CR cells. The experiment in a line: Drug synergy screening: SRB proliferation assay with 2 μM cisplatin. Format: cell-based. The method, then:
(A) Collection of Momordin Ic (Mc) natural compound analogues. […] Cell proliferation was determined by the sulforhodamine B (SRB) assay. […] IGROV1 CR cells were incubated with Mc at indicated concentrations for 48 h and then harvested for Western blot for indicated proteins. […] IGROV1 CR cells were incubated with UA and then treated as in C. […] Intensity of SUMOylated JAK2 was measured by Quantity One software. […] Recombinant His‐JAK2 was SUMOylated by in vitro SUMOylation assay, and then SUMOylated JAK2 proteins were incubated with or without recombinant GST‐SENP1 together with Mc for 3 h. […] In vitro assay was performed as in (F). […]
A general note: In SRB staining, fixed cells bind dye roughly in proportion to their protein.

`C[C@H]1[C@H](C)CC[C@]2(C(=O)NCC(=O)N(C)CCO)CC[C@]3(C)C(=CC[C@@H]4[C@@]5(C)CC[C@H](O)C(C)(C)[C@@H]5CC[C@]43C)[C@H]12` [UAMMC9]: in the assay with STAT3, the “activation of STAT3 in vivo (pSTAT3 IHC)” value is given as “inhibit the activation of STAT3”. Also, the “IC50 of UA derivatives to inhibit resistant cells together with cisplatin (in words)” value with IGROV1 CR cells was “lower IC50”.
